Experimental data from patent publication US20250109168A1, “POLYPEPTIDE AND USE THEREOF IN REGULATING BLOOD GLUCOSE LEVEL AND/OR REDUCING FAT” (Greenyn Biotechnology Co., Ltd, priority 2023, published 2025).

Key:
p-IR/IR = experiment: Cell test: western blotting of p-IR/IR in C2C12 mouse myoblasts; type: cell-based; settings: for Insulin receptor phosphorylation (p-IR/IR), result in words: C2C12 cells, without induction by insulin, summary of Table 6; for p-IR/IR (change in expression): C2C12 mouse myoblasts, final concentration 20 μL/mL, 24 hours, western blotting
Protocol: (§1) C2C12 mouse myoblasts were obtained and were cultured in groups for 24 hours. After that, the culture medium of each group was added with human insulin (MedChemExpress LLC), polypeptide 1 of the present invention (SEQ ID No.: 1), polypeptide 2 of the invention (SEQ ID No.: 2), polypeptide 3 of the invention (SEQ ID No.: 3), polypeptide 4 of the invention (SEQ ID No.: 4), or polypeptide 5 (whose amino acid sequence number is SEQ ID No.: 5 and which was used for the control group) such that the final concentration of the added insulin/polypeptide in the culture medium was 20 μL/mL. The cells in each group were then cultured for another 24 hours, before the culture medium of each cell group was removed. The cells were subsequently washed with a phosphate-buffered solution, added with a radioimmunoprecipitation assay (RIPA) buffer containing a phosphatase inhibitor, and kept in a refrigerator, allowing reactions to take place for 30 minutes. Following that, the cells were thawed, subjected to vibration extraction with an ultrasonic vibrator for 5 minutes, and centrifuged. The supernatant of each cell group was collected and was analyzed by the western blotting method in order to determine changes in the expression of p-IR/IR, p-Akt, GLUT4, mTOR, PPARα, and p-AMPK in each cell group.

p-Akt = experiment: Cell test: western blotting of p-Akt in C2C12 mouse myoblasts; type: cell-based; settings: for Expression of phosphorylated Akt, result in words: C2C12 cells, without induction by insulin, summary of Table 6; for p-Akt (change in expression): C2C12 mouse myoblasts, final concentration 20 μL/mL, 24 hours, western blotting
Protocol: as §1

GLUT4 = experiment: Cell test: western blotting of GLUT4 in C2C12 mouse myoblasts; type: cell-based; settings: for Expression of GLUT4, result in words: C2C12 cells, without induction by insulin, summary of Table 6; for GLUT4 (change in expression): C2C12 mouse myoblasts, final concentration 20 μL/mL, 24 hours, western blotting
Protocol: as §1

PGC-1α = experiment: Cell test: western blotting of PGC-1α in C2C12 mouse myoblasts; type: cell-based; settings: for Expression of PGC-1α, result in words: C2C12 cells, without induction by insulin, summary of Table 6; for PGC-1α (change in expression): C2C12 mouse myoblasts, final concentration 20 μL/mL, 24 hours, western blotting
Protocol: [The source words this procedure for another target and reports this target under the same test.] as §1

mTOR = experiment: Cell test: western blotting of mTOR in C2C12 mouse myoblasts; type: cell-based; settings: final concentration 20 μL/mL, 24 hours
Protocol: as §1

PPARα = experiment: Cell test: western blotting of PPARα in C2C12 mouse myoblasts; type: cell-based; settings: for Expression of PPARα, result in words: C2C12 cells, without induction by insulin, summary of Table 6; for PPARα (change in expression): C2C12 mouse myoblasts, final concentration 20 μL/mL, 24 hours, western blotting
Protocol: as §1

p-AMPK = experiment: Cell test: western blotting of p-AMPK in C2C12 mouse myoblasts; type: cell-based; settings: final concentration 20 μL/mL, 24 hours
Protocol: as §1

insulin receptor = insulin receptor (mouse, UniProt P15208 28-1372); experiment: cell-based or functional assay
Chain of insulin receptor (P15208 28-1372): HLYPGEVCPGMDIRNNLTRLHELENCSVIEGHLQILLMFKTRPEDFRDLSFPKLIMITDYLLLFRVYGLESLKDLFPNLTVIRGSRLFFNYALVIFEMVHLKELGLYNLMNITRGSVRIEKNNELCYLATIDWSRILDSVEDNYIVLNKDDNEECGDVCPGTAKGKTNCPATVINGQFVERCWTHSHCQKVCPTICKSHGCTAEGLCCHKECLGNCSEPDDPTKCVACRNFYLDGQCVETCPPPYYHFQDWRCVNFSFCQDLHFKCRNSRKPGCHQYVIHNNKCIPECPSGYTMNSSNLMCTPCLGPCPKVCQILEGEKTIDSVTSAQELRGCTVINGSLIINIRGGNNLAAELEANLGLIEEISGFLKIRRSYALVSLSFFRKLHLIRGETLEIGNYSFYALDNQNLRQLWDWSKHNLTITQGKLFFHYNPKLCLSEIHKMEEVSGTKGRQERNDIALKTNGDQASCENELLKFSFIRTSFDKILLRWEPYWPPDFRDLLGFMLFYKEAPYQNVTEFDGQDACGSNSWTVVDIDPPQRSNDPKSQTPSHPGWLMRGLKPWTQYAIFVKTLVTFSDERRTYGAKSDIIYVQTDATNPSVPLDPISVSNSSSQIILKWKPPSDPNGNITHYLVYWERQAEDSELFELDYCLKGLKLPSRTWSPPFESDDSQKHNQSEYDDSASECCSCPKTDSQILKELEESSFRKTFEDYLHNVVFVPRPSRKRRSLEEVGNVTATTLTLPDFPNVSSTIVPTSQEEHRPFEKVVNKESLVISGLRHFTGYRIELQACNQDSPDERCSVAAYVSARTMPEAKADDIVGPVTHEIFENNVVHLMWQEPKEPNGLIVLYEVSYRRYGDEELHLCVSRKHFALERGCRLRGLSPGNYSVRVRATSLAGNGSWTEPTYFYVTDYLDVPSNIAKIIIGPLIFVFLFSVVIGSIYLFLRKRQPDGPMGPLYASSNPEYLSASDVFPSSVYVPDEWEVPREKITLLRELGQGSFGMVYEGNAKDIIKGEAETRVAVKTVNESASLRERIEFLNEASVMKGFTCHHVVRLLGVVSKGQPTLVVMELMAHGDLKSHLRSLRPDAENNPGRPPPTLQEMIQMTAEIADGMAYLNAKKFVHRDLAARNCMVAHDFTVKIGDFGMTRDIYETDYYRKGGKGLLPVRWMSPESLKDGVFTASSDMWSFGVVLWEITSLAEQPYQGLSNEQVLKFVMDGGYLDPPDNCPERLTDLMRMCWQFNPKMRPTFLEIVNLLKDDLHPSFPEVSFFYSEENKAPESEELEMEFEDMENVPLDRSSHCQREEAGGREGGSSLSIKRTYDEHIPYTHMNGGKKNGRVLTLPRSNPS

Molecule	Insulin receptor phosphorylation (p-IR/IR), result in words (p-IR/IR)	Expression of phosphorylated Akt, result in words (p-Akt)	p-Akt (change in expression) (p-Akt)	Expression of GLUT4, result in words (GLUT4)	GLUT4 (change in expression) (GLUT4)	Expression of PGC-1α, result in words (PGC-1α)	PGC-1α (change in expression) (PGC-1α)	mTOR (change in expression) (mTOR)	Expression of PPARα, result in words (PPARα)	PPARα (change in expression) (PPARα)	p-AMPK (change in expression) (p-AMPK)	p-IR/IR (change in expression) (p-IR/IR)	p-IR/IR (insulin receptor)
MQIFVK [polypeptide 4]	able to encourage insulin receptor phosphorylation	failure to increase the expression of phosphorylated Akt significantly	−3%	increase the expression of GLUT4	+156%	enhance the expression of PGC-1α	+155%	+74%	enhance the expression of PGC-1α and PPARα	+151%	+91%	–	–
GGGDATRYSTGGGYS [polypeptide 1]	able to encourage insulin receptor phosphorylation	increase the expression of phosphorylated Akt	+196%	increase the expression of phosphorylated Akt and GLUT4	+376%	enhance the expression of PGC-1α	+161%	+136%	enhance the expression of PGC-1α and PPARα	+173%	+232%	–	–
VATVIQVL [polypeptide 5, reference compound]	–	failed to increase the expression of phosphorylated Akt	−42%	weaker enhancing effect	+34%	weaker enhancing effect	+3%	+0%	weaker enhancing effect	+23%	+7%	1	–
human insulin (MedChemExpress LLC) (from UniProt P01308 25-54; P01308 90-110) (ligand)	–	–	–	–	–	–	–	–	–	–	–	–	1.23
human insulin [reference compound]	–	–	+56%	–	+41%	–	+50%	−2%	–	+40%	+1%	1.23	–
INPNEQREV [polypeptide 2]	able to encourage insulin receptor phosphorylation	increase the expression of phosphorylated Akt	+29%	increase the expression of phosphorylated Akt and GLUT4	+23%	enhance the expression of PGC-1α	+0%	+22%	enhance the expression of PGC-1α and PPARα	+62%	+70%	–	–
MQIFVKTLTG [polypeptide 3]	able to encourage insulin receptor phosphorylation	increase the expression of phosphorylated Akt	+153%	increase the expression of phosphorylated Akt and GLUT4	+582%	enhance the expression of PGC-1α	+258%	+117%	enhance the expression of PGC-1α and PPARα	+196%	+210%	–	–
GGGDATRYSTGGGYS [Polypeptide 1]	–	–	–	–	–	–	–	–	–	–	–	–	1.81
INPNEQREV [Polypeptide 2]	–	–	–	–	–	–	–	–	–	–	–	–	1
MQIFVK [Polypeptide 4]	–	–	–	–	–	–	–	–	–	–	–	–	1.97
MQIFVKTLTG [Polypeptide 3]	–	–	–	–	–	–	–	–	–	–	–	–	3.08
